# Laboratory results taken from ChEMBL document CHEMBL1142041, “3-(2,5-Dihydro-1H-pyrrol-2-ylmethoxy)pyridines: synthesis and analgesic activity” (2005).
# Columns and labels:
# Mus musculus [1] = experiment: Analgesic activity of compound in phase I mouse formalin activities at a dose range of […], s.c.; exhibited confounding effects; type: functional, organism-based
# Mus musculus [2] = experiment: Analgesic activity of compound in phase II mouse formalin activities at a dose range of […], s.c.; exhibited confounding effects; type: functional, organism-based
# Mus musculus [3] = experiment: Analgesic activity of compound in phase I mouse formalin activities at a dose range of 0.4-6.3 mg, s.c.; type: functional; conditions: sc
# Mus musculus [4] = experiment: Analgesic activity of compound in phase II mouse formalin activities at a dose range of 0.4-6.3 mg, s.c.; type: functional; conditions: sc
# Mus musculus [5] = experiment: Analgesic activity of compound in phase I mouse formalin activities at a dose range of 0.4-3.1 mg, s.c.; type: functional; conditions: sc
# Mus musculus [6] = experiment: Analgesic activity of compound in phase II mouse formalin activities at a dose range of 0.4-3.1 mg, s.c.; type: functional; conditions: sc
Compound,ED50 (Mus musculus [1]),ED50 (Mus musculus [2]),also measured
C[C@]1(CNc2ccc(Cl)nc2)C=CCN1,Counfounding effects,Counfounding effects,–
C[C@@]1(COc2ccc(Cl)nc2)C=CCN1,Counfounding effects,Counfounding effects,–
Clc1ccc(OC[C@H]2C=CCN2)cn1,–,–,ED50 (Mus musculus [3]): 1.6 µmol/kg; ED50 (Mus musculus [4]): 1.6 µmol/kg
C[C@]1(COc2ccc(Cl)nc2)C=CCN1,Counfounding effects,Counfounding effects,–
C[C@]1(COc2cccnc2)C=CCN1,Counfounding effects,Counfounding effects,–
Clc1ccc(OC[C@@H]2C=CCN2)cn1,Counfounding effects,Counfounding effects,–
Clc1ccc(OC[C@H]2CCN2)cn1 [TEBANICLINE],–,–,ED50 (Mus musculus [5]): 0.9 µmol/kg; ED50 (Mus musculus [6]): 0.8 µmol/kg
